Assay results: US9481669B2, “Pladienolide pyridine compounds and methods of use” (Eisai R&D Management Co., Ltd., priority 2014, dated 2016)
“Also recorded” adds a separate entry of the source. Read-outs that look alike come from different tables or passages of the source.

What was measured:
[1] = test system: WiDr cells (colon cancer cells, wildtype SF3B1); experiment: Cell viability assay (CellTiter-Glo, 72 hr), WiDr; format: cell-based; details: Homo sapiens
Experimental: (§1) Cells (WiDr and Panc05.04 obtained from ATCC) were seeded in 96-well plates, with 2000 cells/100 μL/well, and incubated overnight. Spent media was removed, and fresh media containing 9 different concentrations of compound (100 μL/well) were added, with DMSO concentration from compound stock solution adjusted to be 0.1%. Each compound treatment was done in duplicate or triplicate at each concentration.
(§2) Another plate with cells seeded was dedicated as a time zero (Tz) plate, to which was added 0.1% DMSO in media (100 μL/well) followed by CellTiter-Glo® reagent (Promega Corporation, Madison, Wis.) (50 μL/well) for ATP measurement as a surrogate of cell viability. Average value from measurement of multiple wells of this plate is used as Tz.
(§3) Compound-treated plates were incubated for 72 hr at 37° C. Then, CellTiter-Glo® reagent (50 μL/well) was added and ATP was measured. Average value from measurement of the duplicate or triplicate compound-treated wells is used as Ti, and seeded plates with medium having 0.1% DMSO without compound is used as control growth (C).
(§4) Percentage growth inhibition/Percentage viability was calculated as: [(Ti−Tz)/(C−Tz)]×100 for concentrations for which Ti>/=Tz [(Ti−Tz)/Tz]×100 for concentrations for which Ti<Tz. *time zero (Tz), control growth (C), and test growth in the presence of compound (Ti) Percentage growth inhibition/Percentage viability are plotted versus compound concentration to determine Emax.
(§5) Growth inhibition of 50% (GI50) was calculated from [(Ti−Tz)/(C−Tz)]×100=50, which is the drug concentration resulting in a 50% reduction in the net increase of ATP in control growth (C) during the compound treatment.
(§6) The counter-screening of compounds in this viability assay with a “resistant” WiDr-R cell line may indicate whether these compounds have off-target effect(s).

[2] = Mouse pharmacokinetic (PK) study; format: in vivo, CD-1 mice; details: for AUC0-inf/D / Cmax/D / AUC(0-inf) / AUC(0-t) / half-life / clearance / Vd / Cmax / Tmax / bioavailability / BA (%) / AUC: CD-1 mice; for oral bioavailability and pharmacokinetic properties (in words): mouse model, IV and PO dosing; for AUC(0-inf) / AUC(0-t) / half-life / clearance / Vd / Cmax / Tmax / bioavailability / AUC: mouse, plasma; for Vd: read-out: Vss; for AUC: read-out: AUCfinite
Experimental: (§7) Compound 2 was dosed at 5 mg/kg IV (intravenous) or 10 mg/kg PO (oral administration) to CD-1 mice. Following administration, blood samples were collected at pre-determined time points from five mice via serial bleeding of the tail vein. Blood was collected at 0.083 (0.167 PO only), 0.5, 1, 2, 4, 6, 8, and 24 hours post administration. The blood samples were centrifuged at 5000 RPM for 5 minutes to collect plasma within 30 minutes of blood collection. After extraction, samples were assayed using LCMS. PK parameters were calculated using non-compartmental analysis in WinNonlin v6.3.
as §7, with “Compound 1” for “Compound 2”, “IV” for “IV (intravenous)”, “or 12” for “or 10”, “PO” for “PO (oral administration)”, “bleeding from” for “bleeding of”, “hours post-dose.” for “hours post administration.”
Compound 3 was dosed at 5.964 mg/kg IV or 13.307 mg/kg PO to CD-1 mice. Following administration, blood samples were collected at pre-determined time points from five mice via serial bleeding from the tail vein. Blood was collected at 0.083 (0.167 PO only), 0.5, 1, 2, 4, 6, 8, and 24 hours post-dose. The blood samples were centrifuged at 5000 RPM for 5 minutes to collect plasma within 30 minutes of blood collection. After extraction, samples were assayed using LCMS. PK parameters were calculated using non-compartmental analysis in WinNonlin v6.3.
Compound 4 was dosed at 5 mg/kg IV or 10 mg/kg PO to CD-1 mice. Following administration, blood samples were collected at pre-determined time-points from five mice via serial bleeding from the tail vein. Blood was collected at 0.083 (0.167 PO only), 0.5, 1, 2, 4, 6, 8, and 24 hours post-dose. The blood samples will be centrifuged at 5000 RPM for 5 minutes to collect plasma within 30 minutes of blood collection. After extraction, samples were assayed using LCMS. PK parameters were calculated using non-compartmental analysis in WinNonlin v6.3.

[3] = pH stability measurement (UPLC, 0.1 N HCl); format: physicochemical; details: 0.1 N HCl, pH 1, 24 hours
Experimental: Compounds were provided in 96-well plates and tested in triplicate. Four microliters of a 10 mM stock solution of compound in DMSO were distributed into each of three wells. The plate was stored at or below −20° C. until the day of the analysis. Methanol (HPLC grade) and 0.1 N HCl (EMD catalog HX0603A-6) were used for dilutions. Acetonitrile (HPLC grade), water (Milli-Q filtered), trifluoroacetic acid (spectral grade) and 0.2M phosphate buffer (Wako, catalog no. 163-14471) were used to prepare the mobile phase for the two analyses.
Stability data was obtained using a Waters Acquity UPLC equipped with a UV detector (Waters TUV) and single quadrupole MS detector (Waters SQD). The 96-well plate containing the compound(s) of interest was(were) removed from the freezer and allowed to warm to room temperature for one hour. The UPLC was primed, equilibrated and the system performance was verified by injecting a standard. After 1 hour, each of the three wells was diluted with 266 μL 0.1 N HCl to give pH=1. The plate was covered and placed on a shaker (Eppindorf Thermomixer R) for 45 minutes at 600 rpm. The plate was removed from the shaker, and the contents of each well were filtered through a filtration plate (Millipore catalog no. MSSLBPC50) by vacuum and injected into the UPLC. After approximately 24 hours, the contents of the wells were re-injected into the UPLC.
Stability in the various buffers was measured by comparing the peak area- % of the analyte in methanol versus the peak area- % of the analyte at the same retention time in 0.1 N HCl buffer in the 24 hr time point injection.

[4] = test system: WiDr-R cells (colon cancer cells, SF3B1 R1074H mutation); experiment: Cell viability assay (CellTiter-Glo, 72 hr), WiDr-R counter-screen; format: cell-based
Experimental: as §1, §2, §3, §4, §5, §6

SMILES: C/C(=C\C=C\[C@@H](C)c1ccccn1)[C@H]1OC(=O)C[C@H](O)CC[C@@](C)(O)[C@@H](OC(=O)N2CCN(C3CCCCCC3)CC2)/C=C/[C@@H]1C [Compound 1, (2S,3S,6S,7R,10R,E)-7,10-dihydroxy-3,7-dimethyl-12-oxo-2-((R,2E,4E)-6-(pyridin-2-yl)hepta-2,4-dien-2-yl)oxacyclododec-4-en-6-yl 4-cycloheptylpiperazine-1-carboxylate]
- GI50 [1]: 15.8 nM
- AUC0-inf/D ([2]; 5 mg/kg IV (Table 5)): 934.15 ng · h/mL/D
- AUC0-inf/D ([2]; 12 mg/kg PO): 487.06 ng · h/mL/D
- Cmax/D ([2]; 12 mg/kg PO): 141.47 ng/mL/D
- oral bioavailability and pharmacokinetic properties (in words) [2]: showed oral bioavailability and favorable pharmacokinetic properties; also recorded: possess oral bioavailability and favorable pharmacokinetic properties
- AUC(0-inf) ([2]; 5 mg/kg IV (Table 5)): 4670 ng·h/mL
- AUC(0-t) ([2]; 5 mg/kg IV (Table 5)): 4450 ng·h/mL
- half-life ([2]; 5 mg/kg IV (Table 5)): 152 min
- clearance ([2]; 5 mg/kg IV (Table 5), read-out: CL (converted)): 17.8 mL/min/kg
- Vd ([2]; 5 mg/kg IV (Table 5)): 2.1 L/kg
- AUC(0-inf) ([2]; 12 mg/kg PO): 6230 ng·h/mL
- AUC(0-t) ([2]; 12 mg/kg PO): 6210 ng·h/mL
- Cmax ([2]; 12 mg/kg PO): 1810 ng/mL
- Tmax ([2]; 12 mg/kg PO): 0.5 h
- bioavailability ([2]; 12 mg/kg PO): 52.1%
- half-life ([2]; 12 mg/kg PO): 180 min
- % parent remaining (pH = 1, 24 hours) [3]: 91%
- GI50 [4]: > 1000 nM

SMILES: C/C(=C\C=C\[C@@H](C)c1ccccn1)[C@H]1OC(=O)C[C@H](O)CC[C@@](C)(O)[C@@H](OC(=O)N2CCN(C)CC2)/C=C/[C@@H]1C [Compound 2, (2S,3 S,6S,7R,10R,E)-7,10-dihydroxy-3,7-dimethyl-12-oxo-2-((R,2E,4E)-6-(pyridin-2-yl)hepta-2,4-dien-2-yl)oxacyclododec-4-en-6-yl 4-methylpiperazine-1-carboxylate]
- GI50 [1]: 31.8 nM
- AUC0-inf/D ([2]; 5 mg/kg IV): 632.71 ng · h/mL/D
- AUC0-inf/D ([2]; 10 mg/kg PO): 254.49 ng · h/mL/D
- Cmax/D ([2]; 10 mg/kg PO): 84.07 ng/mL/D
- oral bioavailability and pharmacokinetic properties (in words) [2]: shows oral bioavailability and favorable pharmacokinetic properties; also recorded: possess oral bioavailability and favorable pharmacokinetic properties
- AUC(0-inf) ([2]; 5 mg/kg IV): 3160 ng·h/mL
- AUC(0-t) ([2]; 5 mg/kg IV): 3160 ng·h/mL
- half-life ([2]; 5 mg/kg IV): 233 min
- clearance ([2]; 5 mg/kg IV, read-out: CL (converted)): 26.3 mL/min/kg
- Vd ([2]; 5 mg/kg IV): 2.37 L/kg
- AUC(0-inf) ([2]; 10 mg/kg PO): 2540 ng·h/mL
- AUC(0-t) ([2]; 10 mg/kg PO): 2510 ng·h/mL
- Cmax ([2]; 10 mg/kg PO): 841 ng/mL
- Tmax ([2]; 10 mg/kg PO): 1 h
- bioavailability ([2]; 10 mg/kg PO): 40.2%
- half-life ([2]; 10 mg/kg PO): 242 min
- % parent remaining (pH = 1, 24 hours) [3]: 96%
- GI50 [4]: > 1000 nM

SMILES: C/C(=C\C=C\[C@@H](C)c1ccccn1)[C@H]1OC(=O)C[C@H](O)CC[C@@](C)(O)[C@@H](OC(=O)N2CCC(N3CCCCCC3)CC2)/C=C/[C@@H]1C [Compound 3, (2S,3S,6S,7R,10R,E)-7,10-dihydroxy-3,7-dimethyl-12-oxo-2-((R,2E,4E)-6-(pyridin-2-yl)hepta-2,4-dien-2-yl)oxacyclododec-4-en-6-yl 4-(azepan-1-yl)piperidine-1-carboxylate]
- GI50 [1]: 26.3 nM
- AUC0-inf/D ([2]; 5.964 mg/kg IV): 1.047 μg/mL * hr/D
- AUC0-inf/D ([2]; 13.307 mg/kg PO): 0.615 μg/mL * hr/D
- BA (%) ([2]; 13.307 mg/kg PO): 58.758%
- oral bioavailability and pharmacokinetic properties (in words) [2]: showed oral bioavailability and favorable pharmacokinetic properties; also recorded: possess oral bioavailability and favorable pharmacokinetic properties
- AUC(0-inf) ([2]; 5.964 mg/kg IV): 6240 ng·h/mL
- half-life ([2]; 5.964 mg/kg IV): 220 min
- AUC ([2]; 5.964 mg/kg IV): 6210 ng·h/mL
- clearance ([2]; 5.964 mg/kg IV, read-out: CLtot (converted)): 15.9 mL/min/kg
- Vd ([2]; 5.964 mg/kg IV): 2.98 L/kg
- AUC(0-inf) ([2]; 13.307 mg/kg PO): 8190 ng·h/mL
- Cmax ([2]; 13.307 mg/kg PO): 1570 ng/mL
- Tmax ([2]; 13.307 mg/kg PO): 2 h
- half-life ([2]; 13.307 mg/kg PO): 199 min
- AUC ([2]; 13.307 mg/kg PO): 8140 ng·h/mL
- % parent remaining (pH = 1, 24 hours) [3]: 98%
- GI50 [4]: > 1000 nM

SMILES: C/C(=C\C=C\[C@@H](C)c1ccccn1)[C@H]1OC(=O)C[C@H](O)CC[C@@](C)(O)[C@@H](OC(=O)N2CCC(N3CCCCC3)CC2)/C=C/[C@@H]1C [Compound 4, (2S,3 S,6S,7R,10R,E)-7,10-dihydroxy-3,7-dimethyl-12-oxo-2-((R,2E,4E)-6-(pyridin-2-yl)hepta-2,4-dien-2-yl)oxacyclododec-4-en-6-yl[1,4′-bipiperidine]-1′-carboxylate]
- GI50 [1]: 13 nM
- AUC0-inf/D ([2]; 5 mg/kg IV (Table 7)): 1.325 ug/mL * hr/D
- AUC0-inf/D ([2]; 10 mg/kg PO (Table 7)): 0.795 ug/mL * hr/D
- BA (%) ([2]; 10 mg/kg PO (Table 7)): 60.024%
- oral bioavailability and pharmacokinetic properties (in words) [2]: showed oral bioavailability and favorable pharmacokinetic properties; also recorded: possess oral bioavailability and favorable pharmacokinetic properties
- AUC(0-inf) ([2]; 5 mg/kg IV (Table 7)): 6620 ng·h/mL
- AUC(0-t) ([2]; 5 mg/kg IV (Table 7)): 6610 ng·h/mL
- half-life ([2]; 5 mg/kg IV (Table 7)): 181 min
- clearance ([2]; 5 mg/kg IV (Table 7), read-out: CLtot (converted)): 12.6 mL/min/kg
- Vd ([2]; 5 mg/kg IV (Table 7)): 1.89 L/kg
- AUC(0-inf) ([2]; 10 mg/kg PO (Table 7)): 7950 ng·h/mL
- AUC(0-t) ([2]; 10 mg/kg PO (Table 7)): 7910 ng·h/mL
- Cmax ([2]; 10 mg/kg PO (Table 7)): 1250 ng/mL
- Tmax ([2]; 10 mg/kg PO (Table 7)): 2 h
- half-life ([2]; 10 mg/kg PO (Table 7)): 178 min
- % parent remaining (pH = 1, 24 hours) [3]: 99%
- GI50 [4]: > 1000 nM
